{
  "source": "paper PMC3355656",
  "about": "(2012)",
  "molecular_target": "CDK9 (Homo sapiens, UniProt P50750)",
  "sequence (P50750 1-330)": "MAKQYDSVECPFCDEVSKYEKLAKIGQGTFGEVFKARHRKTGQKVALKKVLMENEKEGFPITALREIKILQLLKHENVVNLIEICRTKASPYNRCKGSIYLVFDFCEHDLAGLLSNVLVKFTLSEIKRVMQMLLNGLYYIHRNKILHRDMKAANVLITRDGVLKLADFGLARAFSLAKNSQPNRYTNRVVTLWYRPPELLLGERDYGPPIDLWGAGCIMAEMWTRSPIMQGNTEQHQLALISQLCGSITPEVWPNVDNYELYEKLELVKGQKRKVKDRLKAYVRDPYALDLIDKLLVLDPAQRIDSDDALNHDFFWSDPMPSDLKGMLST",
  "sequence (O60563 1-259 partner)": "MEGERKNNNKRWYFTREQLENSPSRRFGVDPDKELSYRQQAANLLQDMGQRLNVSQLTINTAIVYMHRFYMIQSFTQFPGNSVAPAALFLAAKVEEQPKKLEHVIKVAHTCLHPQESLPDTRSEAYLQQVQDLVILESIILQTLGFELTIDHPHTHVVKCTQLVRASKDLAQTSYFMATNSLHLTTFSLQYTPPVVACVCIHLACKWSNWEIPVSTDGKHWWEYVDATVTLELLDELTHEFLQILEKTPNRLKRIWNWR",
  "assay": "DSF thermal shift",
  "assay_type": "binding",
  "data": [
    {"molecule": "OC[C@H]1O[C@@H](n2cnc3cc(Cl)c(Cl)cc32)[C@H](O)[C@@H]1O", "note": "[DRB]", "values": [
      {"measurement": "DSF thermal shift (no Kd)", "value": "we tested the ability of known CDK9 inhibitors (DRB, CAN508, (S)-CR8, Roscovitine, Staurosporine"}
    ]}
  ]
}
